Results from patent US10907159B2, “Methods of treating cancer by inhibition of DNA repair proteins using antisense based therapies” (SARISSA INC., priority 2015, dated 2021).

Key:
[1] = test system: DU145 human prostate cancer cells; conditions: BR1 pretreatment; FIG. 37
Procedure: Cells were treated for 4 hours with ASO, after which one volume of medium was added and cells were incubated for a further 20 hours. ASO-containing medium was removed and replaced with fresh medium. Cells were then incubated for 4 days and cell numbers assessed. Proliferation of BR1-treated cells was calculated as a percent of proliferation of non-targeting ASO-treated control cells. Initial cell density varied among cell lines.

TS mRNA = experiment: RT-qPCR of TS mRNA in A549 cells after OLIGO transfection; type: cell-based, human; conditions: 20 nM OLIGO, 24 hours post-transfection; FIG. 16
Procedure: (§1) Briefly, A549 cells seeded at a density of 2.0×10^5 per flask were transfected with 20 nM of OLIGO specific for each target or control OLIGO using Lipofectamine 2000 as the transfection reagent. Twenty four hours post-transfection mRNA was extracted and reverse transcribed into cDNA. RT-qPCR was performed for target mRNA levels using TaqMan reagents according to established protocols.

MDA-MB-231 cells = experiment: Cell proliferation assay, ASO transfection then drug (cell counting); type: cell-based, human; conditions: FIG. 49
Procedure: (§2) Four hours post-transfection, cells were seeded into 6 well dishes in appropriate experimental groups. […] Ninety-six hours post transfection, cells were collected and counted (Coulter Particle Counter). Proliferation was determined based on initial cell density and calculated as a percentage of ASO+vehicle treated cells.

[2] = test system: HK-2 kidney proximal tubule epithelial cells; experiment: as above; type: cell-based, human; conditions: FIG. 52
Procedure: FIG. […] Proliferation was determined by cell counting 96 hours post-transfection (*p<0.05).
as §2

[3] = test system: EP156T primary prostate epithelial cells; experiment: Veliparib after BR1 pretreatment; type: cell-based; conditions: FIG. 37
[4] = test system: EPT1 prostate epithelial cells; experiment: Veliparib after BR1 pretreatment; type: cell-based; conditions: FIG. 37
[5] = test system: HN-5a and HN-5a/carbo-15a head and neck squamous carcinoma cells; experiment: Cisplatin sensitivity after ASO transfection (cell counting, colony forming); type: cell-based, human; conditions: FIG. 51
Procedure: HN-5a cells are parental, cisplatin-sensitive human head and neck squamous carcinoma cells, and HN-5a/carbo-10a and HN-5a/carbo-15a cells are cisplatin-resistant lines derived from HN-5a cells (Ferguson et al., Drug Metab. Dispos. 27:1399-1405, 1999). Cells were exposed to cisplatin and effects on proliferation were assessed 72 h after drug treatment. HN-5a cells (b) and HN-5a/carbo-15a cells (c) were transfected with control (black circles) or BRCA2 (white circles) ASO, treated with varying concentrations of cisplatin and then counted 96 h post-transfection. HN-5a cells (d) and […] cells (e) were transfected with control or BRCA2 ASO, treated with different concentrations of cisplatin for 6 h, and then re-plated at a density of 500 cells per well to determine colony forming ability. *Different from cells treated with control ASO using a Student's t-test (p<0.05).

BRCA2 mRNA = experiment: RT-qPCR of BRCA2 mRNA in A549 cells after OLIGO transfection; type: cell-based, human; conditions: 20 nM OLIGO, 24 hours post-transfection; FIG. 16
Procedure: as §1

CAPAN-1 cells = experiment: Cell proliferation assay, ASO and/or drug (cell counting); type: cell-based, human; conditions: CAPAN-1 with mutated, non-functional BRCA2; FIG. 52
Procedure: A: BRCA2-wild type SKOV-3 cells (black bars), […] MCF-7 cells (white bars), and BRCA2-mutated CAPAN-1 cells (grey bars) were treated simultaneously but separately with BRCA2 ASO (20 nM). Due to differing growth medium requirements and to avoid fluorescent label-induced changes in drug sensitivity, cells were not co-cultured. They were treated independently, at the same time with the same materials. Ninety-six hours post-transfection, cells were counted and proliferation determined (% of proliferation after control ASO treatment).
C: SKOV-3, MCF-7 and CAPAN-1 cells were treated with two different concentrations of olaparib for 96 hours. After drug treatment they were counted and proliferation was determined as a percent of that of vehicle-treated cells.
Four hours post-transfection, cells were seeded into 6 well dishes in appropriate experimental groups. Twenty-four hours post transfection, cells were treated with olaparib (Selleckchem) at three concentrations. Ninety-six hours post transfection, cells were collected and counted (Coulter Particle Counter). Proliferation was determined based on initial cell density and calculated as a percentage of ASO+vehicle treated cells.

5′-guaucuCTTGACGTuccuua-3′ (GUAUCUCTTGACGTUCCUUA; gapmer, lower-case wings modified, type not given here) [BR1]
enhancement of veliparib [1]: enhances veliparib
effect on TS mRNA level (TS mRNA): no significant effect on TS mRNA
effect on antiproliferative activity of cisplatin (MDA-MB-231 cells): enhances the antiproliferative activity of cisplatin
effect on antiproliferative activity of cisplatin [2]: no effect on the antiproliferative activity of cisplatin
enhancement of veliparib [3]: little or not at all
enhancement of veliparib [4]: little or not at all
effect on acquired cisplatin resistance [5]: reverses acquired cisplatin resistance
effect on BRCA2 mRNA level (BRCA2 mRNA): reduction in BRCA2 mRNA
effect on antiproliferative activity of cisplatin (CAPAN-1 cells): no effect on the antiproliferative activity of cisplatin
